Assay results: patent publication US8084398B2, “Benzoylpyrazoles and herbicide” (Bayer Cropscience AG, priority 2006, dated 2011)

How the values were obtained:
Setaria viridis [1] = assay: Herbicidal efficacy against field weeds, pre-emergence soil spray treatment (Test Example 1); type: in vivo; conditions: 500 g ai/ha, 2 weeks after treatment, 100% = complete death, 0% = no efficacy
Procedure: (§1) Test for herbicidal efficacy against field weeds (Pre-emergence soil spray treatment) Preparation of formulation of the active compound
(§2) Carrier: DMF 5 parts by weight
(§3) Emulsifier: Benzyloxy polyglycol ether 1 part by weight
(§4) A suitable formulation of an active compound is obtained as an emulsifiable concentrate by mixing 1 part by weight of the active compound with the stated amounts of the carrier and emulsifier. A prescribed amount of the formulation is diluted with water.
(§5) In a green house, the seeds of field weeds (Amaranthus lividus and Setaria viridis) were inoculated by one species per pot on the surface layer in 16 cm^2 pots filled with field soil (sand loam) and covered with soil. Immediately after the inoculation, the prescribed and diluted solutions of the formulations of respective active compounds prepared according to the above preparation method, were sprayed to the soil. After 2 weeks from the treatment, the herbicidal efficacy of respective active compounds was examined. The evaluation of the herbicidal efficacy was carried out by rating complete death as 100% and as 0% in case of no herbicidal efficacy. In case of showing herbicidal efficacy of 80% or more, such active compounds are evaluated to be practical as herbicides. As typical examples, the study results with Compound Nos. 19 and 96 and those with Comparative compound C-1 are shown in Table 2 below.

Amaranthus lividus = assay: as above; type: in vivo; conditions: 500 g ai/ha, 2 weeks after treatment, 100% = complete death, 0% = no efficacy
Procedure: as §1, §2, §3, §4, §5

Setaria viridis [2] = assay: Herbicidal efficacy against field weeds, after-emergence stalk and leaf spray treatment (Test Example 2); type: in vivo; conditions: 2- to 3-leaf stage, 500 g ai/ha, 2 weeks after treatment, 100% = complete death
Procedure: as §4, §5
Test for herbicidal efficacy against field weeds (After-emerge stalk and leave spray treatment) […]

melting point [°C] | Structure (SMILES) | herbicidal efficacy, Setaria viridis (Setaria viridis [1]) [%] | herbicidal efficacy, Amaranthus lividus (Amaranthus lividus) [%] | herbicidal efficacy, Setaria viridis (Setaria viridis [2]) [%]
– | CS(=O)(=O)c1ccc(C(=O)C2C(=O)CCCC2=O)c(Cl)c1 [C-1] | 30 | 70 | 40
63 to 68 | Cc1nn(C)c(O)c1C(=O)c1ccc(Cl)c(OCCn2cnnn2)c1Cl | – | – | –
